The text below walks through data of patent US20100255054A1, “PHARMACEUTICAL COMPOSITION FOR TREATMENT AND PREVENTION OF RESTENOSIS” (priority 2006, published 2010).

The test system of one experiment is p53. Description: Western blot of p53 expression in vascular smooth muscle cells. It counts as cell-based, rat. Particulars: 0.5 μM, FIG. 4A. Here is the method:
(§1) For vascular smooth muscle cell cultivation, vascular smooth muscle cells were isolated from rat aorta and they were primarily cultured. The vascular smooth muscle cells were cultured and grown in a culture solution containing 20% fetal bovine serum (FBS) at 37° C. under 5% CO2. The cells obtained in this process were transferred to a new culture plate for experiments. The cells used in the experiments were initial cells which had been subcultured 4 to 7 times. In order to activate NQO1, the vascular smooth muscle cells, when the cell mass reached 80 to 90%, were cultured in a medium containing 0.5% fetal bovine serum for 24 hours to keep the cells in the resting state. Such cells were treated with the compound of Example 1 (hereinafter, referred to as Compound 1).
(§2) The vascular smooth muscle cells collected after reacting with Compound 1 were lysed in RIPA buffer (50 mM Tris-HCl, 150 mM NaCl, 5 mM EDTA, 1% NP-40, 1 mM PMSF, 1 mM […], and 1 mg/ml protease inhibitor) to isolate whole proteins. The isolated proteins of each sample were quantified. 25 μg of the proteins were mixed with a sample buffer and boiled for 5 minutes. The boiled proteins were cooled and subjected to electrophoresis on a sodium dodecyl sulfate polyacrylamide gel, thereby separating the proteins by their sizes. […]

The next experiment has as its system p21. In words: Western blot of p21 expression in vascular smooth muscle cells. Type of experiment: cell-based, rat. The note with it: 0.5 μM, FIG. 4A. On the procedure: as §1, §2
Experiment [1] has as its system cyclin dependent kinase (CDK). Description: Western blot of CDK in vascular smooth muscle cells. It counts as cell-based, rat. The note with it: 0.5 μM, FIG. 4B. On the procedure: as §1, §2
(In western blotting, separated proteins are transferred to a membrane and probed.)

The subject of experiment [2] is vascular smooth muscle cells. In words: Vascular smooth muscle cell proliferation (PDGF-induced, WST cell counting kit). It counts as cell-based, rat. On the procedure:
as §1, with “Such cells were treated with the compound of Example 1 (hereinafter, referred to as Compound 1).” left out
Primary cultures of vascular smooth muscle cells were seeded onto 96-well plates, cultured to reach cell mass of 70%, and transferred and again cultured in a medium containing 0.5% fetal bovine serum for 24 hours. […] After further reacting for 4 hours, absorbencies were measured at 450 nm using an ELISA reader to examine the cell proliferation rate.
In order to determine the effects of Compound 1 on vascular smooth muscle cell proliferation, the cells cultured in a 96-well plate were kept in the resting state, followed by pre-treating them with Compound 1 by varying the concentration, and by reacting them with PDGF for 48 hours. The number of living cells was counted using a WST cell counting kit. […]

In another experiment the test system is rats. Description: Lipogenesis in vessels (Oil Red O staining of aortic valve and abdominal aorta). Type of experiment: in vivo, rat. The text has this: The animals were killed to isolate their hearts and abdominal aortas, and they were fixed in 4% formalin, respectively. The fixed heart tissue was immersed in an isotonic sucrose solution, and then stored in a freezer by embedding in an OCT compound. Meanwhile, the fixed abdominal aorta was incised lengthwise and prepared such that the internal vessel was exposed. The frozen heart tissue was sectioned into a thickness of 20 μm and attached onto a coating slide, while the abdominal aorta was immersed in an Oil Red O solution to perform Oil Red O staining, and they were observed.
Rats administered with 25 mg/kg and 50 mg/kg of Compound 1, respectively, for 4 weeks had been killed, and their hearts and abdominal aortas were extracted to prepare frozen sections. The prepared sections were stained with Oil Red O, and a degree of lipid accumulation on the inner vessel wall and aortic valve was compared/observed.
A (upper part of FIG. 7) is an aortic valve and B (bottom part of FIG. 7) is an abdominal aorta. The experiments were repeated three times to confirm the results.

Experiment [3] has as its system Acetyl-CoA carboxylase (ACC). Description: Western blot of phosphorylated ACC in vascular smooth muscle cells. Type of experiment: cell-based, rat. Particulars: 0.5 μM, compared with the control group, FIG. 3. Here is the method:
as §1
The vascular smooth muscle cells collected after reacting with Compound 1 were lysed in RIPA buffer (50 mM Tris-HCl, 150 mM NaCl, 5 mM EDTA, 1% NP-40, 1 mM PMSF, 1 mM […], and 1 mg/ml protease inhibitor) to isolate whole proteins. The isolated proteins of each sample were quantified. 25 μg of the proteins were mixed with a sample buffer and boiled for 5 minutes. […]
Primary cultures of vascular smooth muscle cells were kept in the resting state and then treated with 0.5 μM of Compound 1. […] Quantification was carried out using antibodies specific for phosphorylated AMPK and Acetyl-CoA carboxylase (ACC), and for β-actin. […]

Another experiment deals with SD rats. In words: Intimal hyperplasia after balloon angioplasty (H&E staining). It counts as in vivo, rat. Particulars: 100 mg/kg in diet. Here is the method: SD rats were used for performing balloon angioplasty. Animals were housed in a breeding room maintained at a constant temperature of 22±2° C. and a 12-h light/dark (UD) cycle. The animals were divided into two groups, i.e., a control group with administration of general diet and an experiment group with administration of 100 mg/kg of Compound 1, having 4 animals in each group. The 4 animals in each group were raised in separate cages for each animal for 4 weeks, during which experiments were carried out. The animals were raised for 2 weeks before performing balloon angioplasty and 2 weeks after performing balloon angioplasty while continuing the dietary intake of the general diet and Compound 1 diet. Thereafter, their aortas were isolated to confirm hyoerplasia by means of H&E (hematoxylin and eosin) staining.
14 days after performing balloon angioplasty, the carotid artery was extracted from a rat. After staining the carotid artery by H&E staining, vessel intimal hyperplasia was observed. The results are presented in FIG. 6. a is a control group, b is a vessel intima after performing balloon angioplasty in the general dietary group, c is a vessel intima after performing balloon angioplasty in the 100 mg/kg of Compound 1 administration group, and d is a control group in the 100 mg/kg of Compound 1 administration group, without performing balloon angioplasty.

The test system of another experiment is NQO1. In words: RT-PCR of NQO1 expression in vascular smooth muscle cells. Type of experiment: cell-based, rat. The note with it: 0.5 μM, compared with the control group, FIG. 2.
In another experiment the test system is AMPK. In words: Western blot of phosphorylated AMPK in vascular smooth muscle cells. Type of experiment: cell-based, rat. The note with it: 0.5 μM. On the procedure: as §1
The vascular smooth muscle cells collected after reacting with Compound 1 were lysed in RIPA buffer (50 mM Tris-HCl, 150 mM NaCl, 5 mM EDTA, 1% NP-40, 1 mM PMSF, 1 mM […], and 1 mg/ml protease inhibitor) to isolate whole proteins. The isolated proteins of each sample were quantified. 25 μg of the proteins were mixed with a sample buffer and boiled for 5 minutes. The boiled proteins were cooled and subjected to electrophoresis on a sodium dodecyl sulfate polyacrylamide gel, thereby separating the proteins by their sizes. These proteins were again transferred to PVDF membrane and immunoreacted with antibodies against pAMPK, pACC, p53, p21, CDK and pRb to confirm the protein expression. In addition, in order to verify whether an equal amount of protein was used, the proteins were reacted with anti-β-actin.
Primary cultures of vascular smooth muscle cells were kept in the resting state and then treated with 0.5 μM of Compound 1. After reacting them for a predetermined period of time, the cells were collected to perform western blot. Quantification was carried out using antibodies specific for phosphorylated AMPK and Acetyl-CoA carboxylase (ACC), and for β-actin. The results were confirmed through three or more repeating experiments.

The test system of the next experiment is cyclin B. Description: Western blot of cyclin B expression in vascular smooth muscle cells. Type of experiment: cell-based, rat. The note with it: 0.5 μM, compared with the control group, FIG. 4B. On the procedure: as §1, §2
The subject of another experiment is cyclin D. In words: Western blot of cyclin D expression in vascular smooth muscle cells. Type of experiment: cell-based, rat. Particulars: 0.5 μM, compared with the control group, FIG. 4B. Here is the method:
as §1, §2

Experiment [4] relates to vascular smooth muscle cells. Description: Cell cycle analysis by FACS (PI staining). It counts as cell-based, rat. The note with it: 0.5 μM Compound 1 + PDGF and insulin, 48 hours (PDGF and insulin only: 57%), FIG. 5C. Here is the method:
as §1
FACS was used for cell cycle analysis. The vascular smooth muscle cells incubated in a medium containing 0.5% fetal bovine serum for 24 hours were pretreated with Compound 1 for 2 hours. The cells were treated with PDGF and insulin to induce cell proliferation and reacted for 48 hours. Thereafter, the cells were collected and passed through fixation process, followed by nuclear staining with propidium iodide (PI). Then, the cell cycle was analyzed using FACS.
Primary cultures of vascular smooth muscle cells were treated with 0.5 μM of Compound 1, followed by reacting with PDGF and insulin for 48 hours. […]
On the technique in general: In flow cytometry, cells or beads pass a laser one at a time.

The subject of a further experiment is cyclin E. In words: Western blot of cyclin E expression in vascular smooth muscle cells. The note with it: 0.5 μM, compared with the control group, FIG. 4B. It counts as cell-based, rat. Here is the method: as §1, §2

The structures appear in SMILES notation.

Procedure for NQO1: A study was conducted to investigate effects of Compound 1 on the expression of NQ01 as in the following. Primary cultures of vascular smooth muscle cells were kept in the resting state and then treated with 0.5 μM of Compound 1. After reacting them for a predetermined period of time, RNA was extracted from the cells using trizol. Thereafter, DNA was amplified using NQO1 primer and then subjected to electrophoresis to confirm the expression level of NQO1.

For the compound `CC1(C)CCC2=C(O1)c1ccccc1C(=O)C2=O` [Compound 1, β-lapachone], the “expression level of p53” value in the experiment on p53 was “did not increase largely”. The “expression of p21” value in the experiment on p21 was “increased in a great amount”. Further, the CDK activation entry in [1] is reported as “activated through phosphorylation”. In addition, the “concentration dependence of the reduction in the number of vascular smooth muscle cells” value in [2] (Compound 1 pre-treatment at varying concentration, PDGF 48 hours) is recorded as “concentration-dependent”. Further, in experiment [2] (PDGF + Compound 1 compared with PDGF only, 48 hours, FIG. 1), the “number of vascular smooth muscle cells (living cells)” value is recorded as “significantly low”. Further, in the experiment with rats (25 mg/kg and 50 mg/kg for 4 weeks, Oil Red O, FIG. 7), the “lipogenesis in aortic valve and abdominal aorta” value is given as “inhibited”. Besides, the “blood flow level in the heart and abdominal aorta” value in the experiment on rats (about 50 mg/kg for 4 weeks) is “approximately the same as that of the normal rats”. Besides, the ACC phosphorylation result in experiment [3] is on record as “decreased”. Also, the intima/media ratio with SD rats (14 days after balloon angioplasty (general dietary group: 2.5)) turned out to be 1. For the same compound, the “intimal hyperplasia in the vessel” value in the experiment on SD rats (14 days after balloon angioplasty, FIG. 6 c) is listed as “low rate of intimal hyperplasia”. Further, in the experiment on NQO1, the “expression level of NQO1” value is “significantly higher”. For the same compound, in the experiment on AMPK, the “time after treatment at which phosphorylated AMPK could be observed” value was found to be 1 h and the “time for which phosphorylated AMPK lasted” value turned out to be 6 h. In addition, the AMPK phosphorylation entry in the experiment on AMPK (compared with the control group, FIG. 3) is reported as “increased”. Also, the “expression level of cyclin B” value in the experiment on cyclin B is given as “significantly low”. Further, the “expression level of cyclin D” value in the experiment on cyclin D is “significantly low”. For the same compound, in experiment [4], the “G1 phase (percentage of cells)” value came out at 62%. In addition, the “expression level of cyclin E” value in the experiment with cyclin E is “significantly low”.
